Assay results reported in PubChem BioAssay (NCI).
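Interpolation was linear, between the two tested concentrations surrounding the appropriate level; five concentrations were tested over 48 hours in 96-well plates. GI50: concentration for 50% inhibition of growth. TGI marks complete inhibition of growth.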

Columns and labels:
Assay in all cases: NCI tumour cell line growth inhibition, 48 h
[1] = test system: RXF 393 renal
[2] = test system: UO-31 renal
[3] = test system: HS 578T breast
[4] = test system: SK-MEL-5 melanoma
[5] = test system: UACC-62 melanoma
[6] = test system: HCT-15 colon
[7] = test system: A549 NSCLC
[8] = test system: NCI-H522 lung
[9] = test system: SW-620 colon
[10] = test system: HL-60(TB) leukemia
[11] = test system: NCI/ADR-RES ovarian
[12] = test system: UACC-257 melanoma
[13] = test system: HT29 colon
[14] = test system: NCI-H23 lung
[15] = test system: SN12C renal
[16] = test system: MDA-MB-231 breast
[17] = test system: NCI-H460 lung
[18] = test system: CAKI-1 renal
[19] = test system: SNB-75 CNS
[20] = test system: MOLT-4 leukemia
[21] = test system: SF-295 CNS
[22] = test system: SK-OV-3 ovarian
[23] = test system: PC-3 prostate
[24] = test system: M14 melanoma
[25] = test system: T-47D breast
[26] = test system: OVCAR-4 ovarian
[27] = test system: OVCAR-3 ovarian
[28] = test system: IGROV1 ovarian
[29] = test system: U251 CNS
[30] = test system: HOP-92 NSCLC
[31] = test system: SF-268 CNS
[32] = test system: BT-549 breast
[33] = test system: 786-0 renal
[34] = test system: HCT-116 colon
[35] = test system: HOP-62 NSCLC
[36] = test system: RPMI-8226 leukemia
[37] = test system: MALME-3M melanoma
[38] = test system: LOX IMVI melanoma
[39] = test system: EKVX NSCLC
[40] = test system: SF-539 CNS
[41] = test system: SR leukemia
[42] = test system: KM12 colon
[43] = test system: SNB-19 CNS
[44] = test system: A498 renal
[45] = test system: COLO 205 colon
[46] = test system: MDA-MB-435
[47] = test system: SK-MEL-2 melanoma
[48] = test system: K-562 leukemia
[49] = test system: ACHN renal
[50] = test system: DU-145 prostate
[51] = test system: OVCAR-5 ovarian
[52] = test system: MCF7 breast
[53] = test system: SK-MEL-28 melanoma
[54] = test system: OVCAR-8 ovarian
[55] = test system: TK-10 renal
[56] = test system: HCC-2998 colon
[57] = test system: NCI-H226 lung
[58] = test system: CCRF-CEM leukemia

Oc1c(Br)cc(Br)c2ccc(Cn3cc(-c4ccc(C(F)(F)F)cc4)nn3)nc12
GI50 [1]: 0.662 µM
TGI [1]: 2.17 µM
GI50 [2]: 1.68 µM
TGI [2]: 5.03 µM
GI50 [3]: 3.03 µM
TGI [3]: 10.3 µM
GI50 [4]: 3.16 µM
TGI [4]: 11.7 µM
GI50 [5]: 3.4 µM
TGI [5]: 14.4 µM
GI50 [6]: 1.56 µM
TGI [6]: 3.46 µM
GI50 [7]: 16.6 µM
TGI [7]: 34.3 µM
GI50 [8]: 1.08 µM
TGI [8]: 3.01 µM
GI50 [9]: 0.548 µM
TGI [9]: 2.13 µM
GI50 [10]: 0.674 µM
TGI [10]: 3.06 µM
GI50 [11]: 21.1 µM
TGI [11]: 71.7 µM
GI50 [12]: 1.31 µM
TGI [12]: 3.19 µM
GI50 [13]: 1.92 µM
TGI [13]: 4.55 µM
GI50 [14]: 2.31 µM
TGI [14]: 6.18 µM
GI50 [15]: 3.53 µM
TGI [15]: 14.4 µM
GI50 [16]: 2.06 µM
TGI [16]: 5.02 µM
GI50 [17]: 19 µM
TGI [17]: 37.3 µM
GI50 [18]: 1.27 µM
TGI [18]: 2.69 µM
GI50 [19]: 1.49 µM
TGI [19]: 8.04 µM
GI50 [20]: 1.01 µM
TGI [20]: 5.76 µM
GI50 [21]: 17.2 µM
TGI [21]: 31.2 µM
GI50 [22]: 17.8 µM
TGI [22]: 32.1 µM
GI50 [23]: 2.9 µM
TGI [23]: 12.4 µM
GI50 [24]: 1.81 µM
TGI [24]: 4.44 µM
GI50 [25]: 1.72 µM
TGI [25]: 5.84 µM
GI50 [26]: 1.45 µM
TGI [26]: 3.11 µM
GI50 [27]: 1.42 µM
TGI [27]: 2.8 µM
GI50 [28]: 1.49 µM
TGI [28]: 3.25 µM
GI50 [29]: 4.42 µM
TGI [29]: 16.5 µM
GI50 [30]: 1.52 µM
TGI [30]: 4.4 µM
GI50 [31]: 4.7 µM
TGI [31]: 17.9 µM
GI50 [32]: 2.16 µM
TGI [32]: 5.98 µM
GI50 [33]: 1.92 µM
TGI [33]: 4.54 µM
GI50 [34]: 0.586 µM
TGI [34]: 2.05 µM
GI50 [35]: 15.6 µM
TGI [35]: 30.8 µM
GI50 [36]: 1.59 µM
TGI [36]: 5.6 µM
GI50 [37]: 1.65 µM
TGI [37]: 3.67 µM
GI50 [38]: 0.379 µM
TGI [38]: 1.52 µM
GI50 [39]: 7.43 µM
TGI [39]: 20.9 µM
GI50 [40]: 1.59 µM
TGI [40]: 3.01 µM
GI50 [41]: 0.794 µM
TGI [41]: 5.86 µM
GI50 [42]: 8.84 µM
TGI [42]: 21.4 µM
GI50 [43]: 11.1 µM
TGI [43]: 24.5 µM
GI50 [44]: 3.36 µM
TGI [44]: 13.8 µM
GI50 [45]: 1.28 µM
TGI [45]: 2.93 µM
GI50 [46]: 1.85 µM
TGI [46]: 4.39 µM
GI50 [47]: 2.73 µM
TGI [47]: 9.67 µM
GI50 [48]: 0.41 µM
TGI [48]: 11.8 µM
GI50 [49]: 1.38 µM
TGI [49]: 2.7 µM
GI50 [50]: 1.67 µM
TGI [50]: 3.19 µM
GI50 [51]: 3.45 µM
TGI [51]: 12.9 µM
GI50 [52]: 0.532 µM
TGI [52]: 2.36 µM
GI50 [53]: 1.7 µM
TGI [53]: 3.44 µM
GI50 [54]: 2.62 µM
TGI [54]: 7.76 µM
GI50 [55]: 1.82 µM
TGI [55]: 3.79 µM
GI50 [56]: 8.87 µM
TGI [56]: 22.6 µM
GI50 [57]: 4.46 µM
TGI [57]: 19.7 µM

OCCCCC#Cc1ccccc1C#Cc1ccccn1
GI50 [1]: 25 µM
TGI [1]: 62.3 µM
GI50 [2]: 32.3 µM
TGI [2]: > 100 µM
GI50 [3]: 25.6 µM
TGI [3]: 88.3 µM
GI50 [4]: 19.1 µM
TGI [4]: 41.4 µM
GI50 [5]: 23.1 µM
TGI [5]: > 100 µM
GI50 [6]: 29.8 µM
TGI [6]: > 100 µM
GI50 [7]: 33.6 µM
TGI [7]: > 100 µM
GI50 [8]: 22.2 µM
TGI [8]: 56 µM
GI50 [9]: 45.7 µM
TGI [9]: > 100 µM
GI50 [58]: 31.4 µM
TGI [58]: > 100 µM
GI50 [11]: 27.3 µM
TGI [11]: 77.4 µM
GI50 [12]: 28.8 µM
TGI [12]: 87.2 µM
GI50 [13]: 26.1 µM
TGI [13]: > 100 µM
GI50 [14]: 25.2 µM
TGI [14]: > 100 µM
GI50 [15]: 32.1 µM
TGI [15]: > 100 µM
GI50 [16]: 21 µM
TGI [16]: 64.9 µM
GI50 [17]: 24.8 µM
TGI [17]: 76.4 µM
GI50 [18]: 28.6 µM
TGI [18]: > 100 µM
GI50 [19]: 14.9 µM
TGI [19]: 51.5 µM
GI50 [20]: 21.4 µM
TGI [20]: > 100 µM
GI50 [21]: 21.8 µM
TGI [21]: 65.2 µM
GI50 [22]: > 100 µM
TGI [22]: > 100 µM
GI50 [23]: 24.6 µM
TGI [23]: 73.9 µM
GI50 [25]: 15.9 µM
TGI [25]: 80.6 µM
GI50 [26]: 30.3 µM
TGI [26]: > 100 µM
GI50 [27]: 26.1 µM
TGI [27]: 77.3 µM
GI50 [28]: 27.2 µM
TGI [28]: > 100 µM
GI50 [29]: 31.2 µM
TGI [29]: > 100 µM
GI50 [30]: 26.6 µM
TGI [30]: 94.6 µM
GI50 [31]: 29.8 µM
TGI [31]: > 100 µM
GI50 [32]: 15.8 µM
TGI [32]: 47.4 µM
GI50 [33]: 38.3 µM
TGI [33]: > 100 µM
GI50 [34]: 30.8 µM
TGI [34]: > 100 µM
GI50 [35]: 29.4 µM
TGI [35]: > 100 µM
GI50 [36]: 16.4 µM
TGI [36]: 37.4 µM
GI50 [37]: 27.1 µM
TGI [37]: > 100 µM
GI50 [38]: 27.7 µM
TGI [38]: > 100 µM
GI50 [39]: 27.7 µM
TGI [39]: 67 µM
GI50 [40]: 17.8 µM
TGI [40]: 42.7 µM
GI50 [41]: 25.5 µM
TGI [41]: 96.2 µM
GI50 [42]: 29.7 µM
TGI [42]: > 100 µM
GI50 [43]: 42.1 µM
TGI [43]: > 100 µM
GI50 [44]: 8.99 µM
TGI [44]: 49.7 µM
GI50 [45]: 31.1 µM
TGI [45]: > 100 µM
GI50 [46]: 25.1 µM
TGI [46]: 79.4 µM
GI50 [47]: 41.6 µM
TGI [47]: > 100 µM
GI50 [48]: 29 µM
TGI [48]: > 100 µM
GI50 [49]: 31.8 µM
TGI [49]: > 100 µM
GI50 [50]: 9.78 µM
TGI [50]: 74.6 µM
GI50 [51]: > 100 µM
TGI [51]: > 100 µM
GI50 [52]: 37.8 µM
TGI [52]: > 100 µM
GI50 [53]: 31 µM
TGI [53]: > 100 µM
GI50 [54]: 32.4 µM
TGI [54]: > 100 µM
GI50 [55]: 61 µM
TGI [55]: > 100 µM
GI50 [56]: 26.4 µM
TGI [56]: 72.9 µM
GI50 [57]: 31.3 µM
TGI [57]: > 100 µM

CC(=O)OC1CN2CCC1CC2 (stereo not drawn)
TGI [1]: > 100 µM
TGI [2]: > 100 µM
TGI [3]: > 100 µM
TGI [4]: > 100 µM
TGI [5]: > 100 µM
TGI [6]: > 100 µM
TGI [7]: > 100 µM
TGI [8]: > 100 µM
TGI [9]: > 100 µM
TGI [10]: > 100 µM
TGI [58]: > 100 µM
TGI [11]: > 100 µM
TGI [12]: > 100 µM
TGI [13]: > 100 µM
TGI [14]: > 100 µM
TGI [15]: > 100 µM
TGI [16]: > 100 µM
TGI [17]: > 100 µM
TGI [18]: > 100 µM
TGI [20]: > 100 µM
TGI [21]: > 100 µM
TGI [22]: > 100 µM
TGI [23]: > 100 µM
TGI [24]: > 100 µM
TGI [25]: > 100 µM
TGI [26]: > 100 µM
TGI [27]: > 100 µM
TGI [28]: > 100 µM
TGI [29]: > 100 µM
TGI [30]: > 100 µM
TGI [31]: > 100 µM
TGI [32]: > 100 µM
TGI [33]: > 100 µM
TGI [34]: > 100 µM
TGI [35]: > 100 µM
TGI [36]: > 100 µM
TGI [37]: > 100 µM
TGI [38]: > 100 µM
TGI [39]: > 100 µM
TGI [40]: > 100 µM
TGI [41]: > 100 µM
TGI [42]: > 100 µM
TGI [43]: > 100 µM
TGI [44]: > 100 µM
TGI [45]: > 100 µM
TGI [46]: > 100 µM
TGI [47]: > 100 µM
TGI [48]: > 100 µM
TGI [49]: > 100 µM
TGI [50]: > 100 µM
TGI [51]: > 100 µM
TGI [52]: > 100 µM
TGI [53]: > 100 µM
TGI [54]: > 100 µM
TGI [55]: > 100 µM
TGI [56]: > 100 µM
TGI [57]: > 100 µM
